Laboratory results reported in US10543212B2, “Substituted amines for treating cardiac diseases” (Cardurion Pharmaceuticals, LLC, priority 2017, dated 2020).

Target: T1, Human full-length CaMKIIδ (Homo sapiens, UniProt Q13557)
T1 construct: Human full-length CaMKIIδ (Cat #02-111) was obtained from Carna Biosciences; GST; purchased Carna Biosciences 02-111
Experiment: Human CaMKII enzyme inhibition assay (radiometric kinase assay)
Format: biochemical
Conditions: 3 μM compound; 500 nM ATP; 0.5 nM CaMKIIδ; read-out: CaMKIIδ inhibitory activity (%) at 3 μM
Experimental: In Vitro CaMKIIδ Inhibitory Activity was Evaluated by an Enzyme Assay.
Human CaMKII Enzyme Inhibition Assay
Kinase assay for CaMKIIs was performed using the radiometric assay. Human full-length CaMKIIδ (Cat #02-111) was obtained from Carna Biosciences (Kobe, Japan).
Enzyme reactions were performed in 25 mM HEPES, pH 7.5, with 5 mM magnesium chloride, 1 mM calcium chloride, 10 μg/mL Calmodulin, 2 mM DTT, 0.01% Tween20 and 500 nM ATP (0.2 μCi/well of [γ-33P] ATP) containing 0.5 nM CaMKIIδ and 0.1 μM autophosphorylation peptide (KKALRRQETVDAL)(Toray Research Center).
After incubating the enzyme, peptide, and compounds for 5 min, kinase reactions were initiated by adding ATP, followed by incubation for 60 min at room temperature in a total volume of 50 μL. The reactions were terminated by the addition of 10% trichloroacetic acid (final concentration). The [γ-33P]-phosphorylated proteins were filtered in a Harvest Plate (Merck Millipore) with a Cell Harvester (PerkinElmer) and then free [γ-33P] ATP was washed out with 3% phosphoric acid. The plates were dried, followed by the addition of 40 μl of MicroScintO (PerkinElmer). The radioactivity was counted by a TopCount scintillation counter (PerkinElmer). The signals of the reaction without enzyme were defined as 100% inhibitory activity and those of the reaction without inhibitors as 0% inhibitory activity. In vitro CaMKIIδ inhibitory activity was evaluated by % inhibitory activity of 3 μM compound concentration.

Structure (SMILES)	inhibition at 3 µM
COc1cc(N2CCN(C3COC3)CC2)ccc1Nc1ncc(-c2ccc(C#N)c(O[C@@H](C)Cn3cnnn3)c2)cn1 [Example 192, 4-(2-((2-methoxy-4-(4-(oxetan-3-yl)piperazin-1-yl)phenyl)ami-no)pyrimidin-5-yl)-2-(((2S)-1-(1H-tetrazol-1-yl)propan-2-yl)oxy)benzonitrile]	99%
COc1cc(N2CCN(C3COC3)CC2)ccc1Nc1ncc(-c2ccc(Cl)c(O[C@@H](C)Cn3cnnn3)c2)cn1 [Example 197, 5-(4-chloro-3-(((2S)-1-(1H-tetrazol-1-yl)propan-2-yl)oxy)phenyl)-N-(2-methoxy-4-(4-(oxetan-3-yl)piperazin-1-yl)phenyl)pyrimidin-2-amine]	97%
COc1ccc(N2CCC(N3CCOCC3)CC2)cc1Nc1ncc(-c2ccc(C#N)c(O[C@@H](C)Cn3cnnn3)c2)cn1 [Example 202, 4-(2-((2-methoxy-5-(4-(morpholin-4-yl)piperidin-1-yl)phenyl)amino)pyrimidin-5-yl)-2-(((2S)-1-(1H-tetrazol-1-yl)propan-2-yl)oxy)benzonitrile]	99%
COc1cc(N2CCC(N3CCOCC3)CC2)c(F)cc1Nc1ncc(-c2ccc(Cl)c(O[C@@H](C)Cn3cnnn3)c2)cn1 [Example 205, 5-(4-chloro-3-(((2S)-1-(1H-tetrazol-1-yl)propan-2-yl)oxy)phenyl)-N-(5-fluoro-2-methoxy-4-(4-(morpholin-4-yl)piperidin-1-yl)phenyl)pyrimidin-2-amine]	99%
COc1cc(C2CCN(C3COC3)CC2)ccc1Nc1ncc(-c2ccc(Cl)c(O[C@@H](C)Cn3cnnn3)c2)cn1 [Example 206, 5-(4-chloro-3-(((2S)-1-(1H-tetrazol-1-yl)propan-2-yl)oxy)phenyl)-N-(2-methoxy-4-(1-(oxetan-3-yl)piperidin-4-yl)phenyl)pyrimidin-2-amine]	99%
COc1cc(N2CCC(N3C4CCC3COC4)CC2)ccc1Nc1ncc(-c2ccc(Cl)c(O[C@@H](C)Cn3cnnn3)c2)cn1 [Example 210, 5-(4-chloro-3-(((2S)-1-(1H-tetrazol-1-yl)propan-2-yl)oxy)phenyl)-N-(2-methoxy-4-(4-(3-oxa-8-azabicyclo[3.2.1]oct-8-yl)piperidin-1-yl)phenyl)pyrimidin-2-amine]	100%
COc1cc(N2CCN(C3COC3)CC2)c(F)cc1Nc1ncc(-c2ccc(Cl)c(O[C@@H](C)Cn3cnnn3)c2)cn1 [Example 211, 5-(4-chloro-3-(((2S)-1-(1H-tetrazol-1-yl)propan-2-yl)oxy)phenyl)-N-(5-fluoro-2-methoxy-4-(4-(oxetan-3-yl)piperazin-1-yl)phenyl)pyrimidin-2-amine]	98%
COc1nc(N2CCC(N3CCOCC3)CC2)ccc1Nc1ncc(-c2ccc(Cl)c(O[C@@H](C)Cn3cnnn3)c2)cn1 [Example 212, 5-(4-chloro-3-(((2S)-1-(1H-tetrazol-1-yl)propan-2-yl)oxy)phenyl)-N-(2-methoxy-6-(4-(morpholin-4-yl)piperidin-1-yl)pyridin-3-yl)pyrimidin-2-amine]	99%
COc1cc(N2CCC(N3C[C@H]4CC[C@@H](C3)O4)CC2)ccc1Nc1ncc(-c2ccc(Cl)c(O[C@@H](C)Cn3cnnn3)c2)cn1 [Example 213, 5-(4-chloro-3-(((2S)-1-(1H-tetrazol-1-yl)propan-2-yl)oxy)phenyl)-N-(2-methoxy-4-(4-((1R,5S)-8-oxa-3-azabicyclo[3.2.1]oct-3-yl)piperidin-1-yl)phenyl)pyrimidin-2-amine]	100%
COc1ccc(N2CCC(N3CCOCC3)CC2)cc1Nc1ncc(-c2ccc(Cl)c(O[C@@H](C)Cn3cnnn3)c2)cn1 [Example 214, 5-(4-chloro-3-(((2S)-1-(1H-tetrazol-1-yl)propan-2-yl)oxy)phenyl)-N-(2-methoxy-5-(4-(morpholin-4-yl)piperidin-1-yl)phenyl)pyrimidin-2-amine]	100%
C[C@@H](Cn1cncn1)Oc1cc(-c2cnc(Nc3cnn(C4CC4)c3)nc2)ccc1C#N [Example 361, 4-(2-((1-cyclopropyl-1H-pyrazol-4-yl)amino)pyrimidin-5-yl)-2-(((2S)-1-(1H-1,2,4-triazol-1-yl)propan-2-yl)oxy)benzonitrile]	98%
C[C@@H](Cn1cncn1)Oc1cc(-c2cnc(Nc3cnn(CC(F)(F)F)c3)nc2)ccc1C#N [Example 362, 2-(((2S)-1-(1H-1,2,4-triazol-1-yl)propan-2-yl)oxy)-4-(2-((1-(2,2,2-trifluoroethyl)-1H-pyrazol-4-yl)amino)pyrimidin-5-yl)benzonitrile]	97%
C[C@@H](Cn1cncn1)Oc1cc(-c2cnc(Nc3cnn(CC(C)(C)C#N)c3)nc2)ccc1C#N [Example 365, 4-(2-((1-(2-cyano-2-methylpropyl)-1H-pyrazol-4-yl)amino)pyrimidin-5-yl)-2-(((2S)-1-(1H-1,2,4-triazol-1-yl)propan-2-yl)oxy)benzonitrile]	98%
C[C@@H](Cn1cncn1)Oc1cc(-c2cnc(Nc3cnn(C(C)(C)C)c3)nc2)ccc1C#N [Example 373, 4-(2-((1-tert-butyl-1H-pyrazol-4-yl)amino)pyrimidin-5-yl)-2-(((2S)-1-(1H-1,2,4-triazol-1-yl)propan-2-yl)oxy)benzonitrile]	98%
C[C@@H](Cn1cncn1)Oc1cc(-c2cnc(Nc3cn[nH]c3)nc2)ccc1C#N [Example 379, 4-(2-(1H-pyrazol-4-ylamino)pyrimidin-5-yl)-2-(((2S)-1-(1H-1,2,4-triazol-1-yl)propan-2-yl)oxy)benzonitrile]	98%

More lines, now with the values ahead:

inhibition at 3 µM	Structure (SMILES)
99%	COc1cc(C2CCN(CCO)CC2)ccc1Nc1ncc(-c2ccc(C#N)c(O[C@@H](C)Cn3cnnn3)c2)cn1 [Example 160, 4-(2-((4-(1-(2-hydroxyethyl)piperidin-4-yl)-2-methoxy-phenyl)amino)pyrimidin-5-yl)-2-(((2S)-1-(1H-tetrazol-1-yl)propan-2-yl)oxy)benzonitrile]
100%	COc1cc(C(=O)N2CC3(CN(C)C3)C2)ccc1Nc1ncc(-c2ccc(C#N)c(O[C@@H](C)Cn3cnnn3)c2)cn1 [Example 172, 4-(2-((2-methoxy-4-((6-methyl-2,6-diazaspiro[3.3]hept-2-yl)carbonyl)phenyl)ami-no)pyrimidin-5-yl)-2-(((2S)-1-(1H-tetrazol-1-yl)propan-2-yl)oxy)benzonitrile]
96%	Cc1nn(C)cc1Nc1ncc(-c2ccc(C#N)c(O[C@@H](C)Cn3cncn3)c2)cn1 [Example 357, 4-(2-((1,3-dimethyl-1H-pyrazol-4-yl)amino)pyrimidin-5-yl)-2-(((2S)-1-(1H-1,2,4-triazol-1-yl)propan-2-yl)oxy)benzonitrile]
93%	Cc1nn(C(C)C)cc1Nc1ncc(-c2ccc(C#N)c(O[C@@H](C)Cn3cncn3)c2)cn1 [Example 358, 4-(2-((1-isopropyl-3-methyl-1H-pyrazol-4-yl)amino)pyrimidin-5-yl)-2-(((2S)-1-(1H-1,2,4-triazol-1-yl)propan-2-yl)oxy)benzonitrile]
94%	CC(C)n1cc(Nc2ncc(-c3ccc(C#N)c(O[C@@H](C)Cn4ncnn4)c3)cn2)cn1 [Example 371, 4-(2-((1-isopropyl-1H-pyrazol-4-yl)amino)pyrimidin-5-yl)-2-(((2S)-1-(2H-tetrazol-2-yl)propan-2-yl)oxy)benzonitrile]
98%	Cc1nn(C)cc1Nc1ncc(-c2ccc(C#N)c(O[C@@H](C)Cn3cnnn3)c2)cn1 [Example 372, 4-(2-((1,3-dimethyl-1H-pyrazol-4-yl)amino)pyrimidin-5-yl)-2-(((2S)-1-(1H-tetrazol-1-yl)propan-2-yl)oxy)benzonitrile]
97%	CC(C)n1cc(Nc2ncc(-c3ccc(C#N)c(O[C@@H](C)Cn4cnnn4)c3)cn2)cn1 [Example 374, 4-(2-((1-isopropyl-1H-pyrazol-4-yl)amino)pyrimidin-5-yl)-2-(((2S)-1-(1H-tetrazol-1-yl)propan-2-yl)oxy)benzonitrile]
97%	COc1nn(C)cc1Nc1ncc(-c2ccc(C#N)c(O[C@@H](C)Cn3cncn3)c2)cn1 [Example 375, 4-(2-((3-methoxy-1-methyl-1H-pyrazol-4-yl)amino)pyrimidin-5-yl)-2-(((2S)-1-(1H-1,2,4-triazol-1-yl)propan-2-yl)oxy)benzonitrile]
97%	C[C@@H](Cn1cncn1)Oc1cc(-c2cnc(Nc3cn(C)nc3C(F)(F)F)nc2)ccc1C#N [Example 376, 4-(2-((1-methyl-3-(trifluoromethyl)-1H-pyrazol-4-yl)amino)pyrimidin-5-yl)-2-(((2S)-1-(1H-1,2,4-triazol-1-yl)propan-2-yl)oxy)benzonitrile]
99%	C[C@@H](Cn1cnnn1)Oc1cc(-c2cnc(Nc3cn(C)nc3C(F)(F)F)nc2)ccc1C#N [Example 380, 4-(2-((1-methyl-3-(trifluoromethyl)-1H-pyrazol-4-yl)amino)pyrimidin-5-yl)-2-(((2S)-1-(1H-tetrazol-1-yl)propan-2-yl)oxy)benzonitrile]
